The values that follow come from US8389541B2, “Inhibitors of protein tyrosine kinase activity” (MethylGene Inc., priority 2007, dated 2013).

The target of one assay is T1, VEGF receptor KDR (Homo sapiens, UniProt P35968).
T1 construct: made in house; host or cells: Sf9 cells (Spodoptera frugiperda), baculovirus
Description: In vitro receptor tyrosine kinase assay (DELFIA), VEGF receptor KDR. It counts as biochemical. Conditions: GST-VEGFR2 806-1356, 0.6 uM ATP; read-out: VEGFR IC50. An excerpt:
In the case of VEGF receptor KDR a 1.6-kb cDNA corresponding to the catalytic domain of VEGFR2 or KDR (Genbank accession number AF035121 amino acid 806 to 1356) is cloned into the Pst I site of the pDEST20 Gateway vector (Invitrogen) for the production of a GST-tagged version of that enzyme.
The GST-VEGFR2806-1356 protein is expressed in Sf9 cells (Spodoptera frugiperda) upon infection with recombinant baculovirus construct.
The supernatant is loaded onto a GST-agarose column (Sigma) equilibrated with PBS pH 7.3. Following a four column volume (CV) wash with PBS pH 7.3+1% Triton X-100 and 4 CV wash with buffer B (50 mM Tris pH 8.0, 20% glycerol and 100 mM NaCl), bound proteins are step eluted with 5 CV of buffer B supplemented with 5 mM DTT and 15 mM glutathion. […] Final GST-VEGFR2806-1356 protein preparations concentrations are about 0.7 mg/ml with purity approximating 70%.

For the next assay, the system named is A549 cells. Put plainly: Wound healing assay in A549 cells (HGF-stimulated). It counts as cell-based. The following applies: Homo sapiens, last dose that inhibited gap closing by more than 25%, 24 h, read-out: A549 WOUND_HEALING IC50. As for the experimental part:
Wound healing assay in A549 cells. A549 cells (ATCC) are seeded in DMEM low glucose medium complemented with 10% FBS into 24-well plates at a density of 7.5×10^4 cells/well and grown to confluence (48 h). Inhibitors were added to the medium at a range of doses (0.00032-10 uM) for 3 h at which point a gap is introduced by scraping cells with a P1000 pipette tip. Cells are then stimulated to migrate by the addition of HGF (in the form of conditioned medium from 293T cells over-expressing the human HGF gene) and the culture is continued for 24 h. […] For the purpose of standardization, a control is carried on every assay plates.

The test system of the next assay is DU145 cells. Description: Scatter assay in DU145 cells (HGF-stimulated). The following applies: Homo sapiens, DU-145, last dose that created an inhibitory effect on scattering, 24 h, read-out: DU145 SCATT. INHIB IC50. The format is cell-based. As to the method: Scatter assays in DU145. The scatter assay is performed as described previously (Miura H, Nishimura K, Tsujimura A, Matsumiya K, Matsumoto K, Nakamura T, et al. Effects of hepatocyte growth factor on E-cadherin-mediated cell-cell adhesion in DU145 prostate cancer cells. Urology 2001; 58(6):1064-9) for DU145 prostate carcinoma cells with the indicated modifications. In brief, DU145 cells (ATCC) are seeded in 24-well plates at a density of 7×10^3 cells/well in MEM medium complemented with 10% FBS and cultured for 48 h, to allow the formation of small compact colonies of cells. Inhibitors are subsequently added at a range of doses (0.00032-10 uM) for 3 h. Cells are then stimulated to migrate by the addition of HGF (in the form of conditioned medium from 293T cells over-expressing the human HGF gene) and the culture is continued for another 24 h. The IC50 values is defined as the last dose that created an inhibitory effect on scattering. For the purpose of standardization a control is carried on every test plates for the DU145 scattering assays.

The next assay addresses T2, c-Met (Homo sapiens, UniProt P08581).
T2 construct: endogenous in cells; host or cells: MKN45 gastric carcinoma cells
Description: Inhibition of c-Met phosphorylation in MKN45 cells (direct ELISA). Conditions: 3 h treatment, read-out: CMET ELISA IN MKN45 IC50. It counts as cell-based. An excerpt:
The following assay is used to determine inhibition of c-Met phosphorylation.
The c-Met receptor is expressed in numerous cancer cell lines derived from tumors of epithelial origin. In MKN45 gastric carcinoma cells the c-Met gene is amplified, resulting in several-fold overexpression of the receptor and its constitutive activation. For this reason constitutively high levels of ERK1/2 are also detected in these cells, independently of HGF-added stimulation (Smolen G A, Sordella R, Muir B, Mohapatra G, Barmettler A, Archibald H, et al. Amplification of MET may identify a subset of cancers with extreme sensitivity to the selective tyrosine kinase inhibitor PHA-665752. Proc Natl Acad Sci USA 2006). We have developed a sensitive method to follow c-Met phosphorylation in these cells. In previous studies with earlier generation c-Met inhibitors, we established that the IC50s for the inhibition of c-Met phosphorylation were identical using this novel ELISA approach and standard western blot procedure, with antibodies directed against the activating autocatalysis tyrosine residues of c-MET (Tyr Y1230-34-35).
Cell treatments: MKN45 cells are seeded into wells of 96-well plates at a density of 3×10^4 cells/well in RPMI medium supplemented with 10% FBS. HA-TPR-RON expressing 293T (clone 18) cells are seeded into wells of 96-well plates at a density of 3×10^4 cells/well in DMEM medium supplemented with 10% FBS. Cells are grown for 48 h prior to treatments with compounds of interest. Inhibitors are added to the medium in triplicate wells at the indicated doses. After 3 h of treatment, media is aspirated and cells are lysed by one freeze-thaw cycle in 50 μL/well hypotonic lysis buffer (25 mM HEPES pH 7.5, 10 mM NaCl with 1 mM 4-(2-aminoethyl)benzenesulfonyl fluoride hydrochloride, 200 μM sodium orthovanadate, 1 mM sodium fluoride, 10 μg/mL of leupeptin, 10 μg/mL of aprotinin/mL, 1 μg/mL of pepstatin and 50 μg/mL Na-p-tosyl-L-lysine chloromethyl ketone hydrochloride.
Detection of phosphorylated c-Met by direct ELISA: Lysate samples (5 μL) from wells of treatment plates are transferred to 80 μL of binding buffer (25 mM HEPES pH 7.5, 200 mM NaCl) in wells of high binding white polysterene 96-well plates (Corning). After an overnight protein binding incubation at 4° C., lysates are aspirated and wells are blocked for 1 h at 37° C. in TBST supplemented with 5% BSA. Plates are incubated with the primary antibodies anti-phospho-Tyrosine (Millipore, 4G10) diluted 1/15000 in TBST supplemented with 5% BSA for 1 h at room temperature. Plates are washed 3 times on a plate washer (SkanWasher, Molecular Devises), and incubated with the reporter antibody […] (Sigma) diluted 1/15000 in TBST supplemented with 5% BSA, for 1 h at room temperature. Plates are washed 3 times with TBST using on a plate washer and subsequently incubated with chemiluminescent substrate solution (ECL, Roche). Luminescence signal is captured on a Polar Star Optima apparatus (BMG LabTech).
Average values of the triplicate samples are used to prepare IC50 curves using a 4-parameter fit model. These curves are calculated using, for example, GraFit 5.0 software. For assay standardization purpose, an internal control is included on each experimental test plate.

Assay [1] addresses recombinant human c-Met/HGF receptor (Homo sapiens, UniProt P08581). Description: In vitro receptor tyrosine kinase assay (DELFIA), c-Met/HGF receptor.

T2 sequence (P08581 25-1390): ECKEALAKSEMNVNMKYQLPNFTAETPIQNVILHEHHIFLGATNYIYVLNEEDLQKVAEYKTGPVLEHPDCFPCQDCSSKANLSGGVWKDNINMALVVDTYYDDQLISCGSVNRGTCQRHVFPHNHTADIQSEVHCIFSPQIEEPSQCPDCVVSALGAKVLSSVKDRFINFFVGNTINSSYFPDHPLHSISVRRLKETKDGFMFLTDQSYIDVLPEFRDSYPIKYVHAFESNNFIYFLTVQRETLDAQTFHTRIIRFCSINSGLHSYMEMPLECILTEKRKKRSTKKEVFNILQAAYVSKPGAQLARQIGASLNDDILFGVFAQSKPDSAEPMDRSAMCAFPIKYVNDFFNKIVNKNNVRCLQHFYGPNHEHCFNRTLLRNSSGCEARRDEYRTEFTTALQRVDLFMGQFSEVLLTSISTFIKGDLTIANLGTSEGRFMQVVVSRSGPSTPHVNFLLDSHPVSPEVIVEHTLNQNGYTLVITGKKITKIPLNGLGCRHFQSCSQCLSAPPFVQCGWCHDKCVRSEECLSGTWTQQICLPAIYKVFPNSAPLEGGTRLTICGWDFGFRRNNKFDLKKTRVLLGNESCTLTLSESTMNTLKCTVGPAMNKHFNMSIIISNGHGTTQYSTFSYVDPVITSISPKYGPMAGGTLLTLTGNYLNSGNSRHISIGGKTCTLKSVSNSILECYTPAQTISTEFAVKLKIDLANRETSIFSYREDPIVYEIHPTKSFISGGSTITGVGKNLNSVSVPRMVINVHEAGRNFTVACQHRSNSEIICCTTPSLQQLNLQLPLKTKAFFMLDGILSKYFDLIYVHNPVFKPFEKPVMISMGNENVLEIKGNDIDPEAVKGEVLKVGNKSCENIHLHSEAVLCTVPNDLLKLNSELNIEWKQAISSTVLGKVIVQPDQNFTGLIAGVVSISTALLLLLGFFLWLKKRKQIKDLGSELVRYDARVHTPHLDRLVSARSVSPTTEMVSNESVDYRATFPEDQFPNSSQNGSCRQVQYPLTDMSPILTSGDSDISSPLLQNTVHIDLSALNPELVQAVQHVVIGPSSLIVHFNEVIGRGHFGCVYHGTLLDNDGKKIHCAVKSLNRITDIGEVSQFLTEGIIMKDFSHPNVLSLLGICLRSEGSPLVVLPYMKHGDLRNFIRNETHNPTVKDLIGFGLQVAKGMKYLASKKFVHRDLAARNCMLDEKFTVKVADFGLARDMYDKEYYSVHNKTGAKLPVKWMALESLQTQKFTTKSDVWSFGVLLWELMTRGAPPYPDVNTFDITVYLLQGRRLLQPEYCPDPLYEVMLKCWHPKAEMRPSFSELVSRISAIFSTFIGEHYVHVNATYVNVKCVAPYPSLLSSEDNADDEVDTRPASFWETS
Chain of recombinant human c-Met/HGF receptor (P08581 1078-1337): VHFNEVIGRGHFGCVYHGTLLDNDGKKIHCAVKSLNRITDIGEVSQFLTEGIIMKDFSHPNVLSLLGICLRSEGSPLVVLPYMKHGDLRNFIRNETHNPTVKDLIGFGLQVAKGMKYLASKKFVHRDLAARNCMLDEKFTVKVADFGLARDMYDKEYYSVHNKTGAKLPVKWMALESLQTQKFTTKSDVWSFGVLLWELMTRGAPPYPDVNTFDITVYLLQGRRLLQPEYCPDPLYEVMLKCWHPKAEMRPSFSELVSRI
T1 sequence (P35968 806-1356): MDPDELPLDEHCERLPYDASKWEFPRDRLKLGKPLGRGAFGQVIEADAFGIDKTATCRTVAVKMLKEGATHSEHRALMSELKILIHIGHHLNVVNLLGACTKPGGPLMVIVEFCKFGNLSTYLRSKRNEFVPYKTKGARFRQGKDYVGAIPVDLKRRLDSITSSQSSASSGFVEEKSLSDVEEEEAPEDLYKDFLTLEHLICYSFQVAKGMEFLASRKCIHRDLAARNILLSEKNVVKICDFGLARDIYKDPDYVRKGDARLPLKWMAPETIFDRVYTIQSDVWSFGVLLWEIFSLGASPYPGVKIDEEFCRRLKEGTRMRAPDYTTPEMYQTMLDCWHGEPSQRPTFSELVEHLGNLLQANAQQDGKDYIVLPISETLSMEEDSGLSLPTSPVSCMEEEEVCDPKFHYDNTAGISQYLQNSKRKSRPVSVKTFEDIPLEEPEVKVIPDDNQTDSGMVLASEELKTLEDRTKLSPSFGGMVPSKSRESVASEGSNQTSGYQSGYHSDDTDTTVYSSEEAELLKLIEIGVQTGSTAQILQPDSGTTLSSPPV

The IC50 is the concentration that inhibits the measured activity by half. Take `CS(=O)(=O)CCNCc1ccc(-c2cc3nccc(Oc4ccc(NC(=S)NC(=O)Cc5ccccc5)cc4F)c3s2)cc1`: the IC50 was less than 250 nM on VEGF receptor KDR; 250 to 500 nM in the assay with A549 cells; 250 to 500 nM with DU145 cells; less than 250 nM on c-Met; less than 250 nM in assay [1].

On to `COCCNCc1ccc(-c2cc3nccc(Oc4ccc(NC(=S)NC(=O)Cc5ccccc5)cc4F)c3s2)s1`, for which the concentration for half-maximal inhibition (IC50) at VEGF receptor KDR is less than 250 nM; in the assay on A549 cells, more than 1000 nM; with DU145 cells, 250 to 500 nM; at c-Met, less than 250 nM; in assay [1], less than 250 nM.

On to `COCCNCCc1ccc(-c2cc3nccc(Oc4ccc(NC(=O)CC(=O)Nc5ccccc5)cc4F)c3s2)cc1`, for which the IC50 at VEGF receptor KDR was less than 250 nM; in the assay with A549 cells, 250 to 500 nM; with DU145 cells, 250 to 500 nM; at c-Met it was 250 to 500 nM; in assay [1], less than 250 nM.

As to `CSCCNCc1ccc(-c2cc3nccc(Oc4ccc(NC(=S)NC(=O)Cc5ccc(F)cc5)cc4F)c3s2)cc1`, the IC50 is less than 250 nM on VEGF receptor KDR; more than 1000 nM with A549 cells; 250 to 500 nM in the assay with DU145 cells; less than 250 nM at c-Met; less than 250 nM in assay [1].

In the case of `CS(=O)(=O)CCNCc1cccc(-c2cc3nccc(Oc4ccc(NC(=S)NC(=O)Cc5ccc(F)cc5)cc4F)c3s2)c1`, the IC50 at VEGF receptor KDR is less than 250 nM; in the assay with A549 cells, more than 1000 nM; in the assay on DU145 cells it was more than 1000 nM; on c-Met it was less than 250 nM; in assay [1] it was less than 250 nM.

As for `CS(=O)(=O)CCNCc1cccc(-c2cc3nccc(Oc4ccc(NC(=S)NC(=O)Cc5ccccc5)cc4F)c3s2)c1`, the IC50 on VEGF receptor KDR was less than 250 nM; in the assay on A549 cells, more than 1000 nM; in the assay with DU145 cells, more than 1000 nM; on c-Met, less than 250 nM; in assay [1] it was less than 250 nM.

Consider `COCCNCc1ccc(-c2cc3nccc(Oc4ccc(NC(=S)NC(=O)Cc5ccccc5F)cc4F)c3s2)cc1`, for which the IC50 was less than 250 nM on VEGF receptor KDR; 250 to 500 nM in the assay with A549 cells; 250 to 500 nM in the assay on DU145 cells; less than 250 nM on c-Met; less than 250 nM in assay [1].

Consider `COCCNCCn1cc(-c2cc3nccc(Oc4ccc(NC(=O)CC(=O)N(C)c5ccccc5)cc4F)c3s2)cn1` [drawing 334], for which the IC50 is less than 250 nM at VEGF receptor KDR; less than 250 nM in the assay on A549 cells; 250 to 500 nM in the assay on DU145 cells; less than 250 nM on c-Met; less than 250 nM in assay [1].

Take `COCCNCc1cnc(-c2cc3nccc(Oc4ccc(NC(=O)C5(C(=O)Nc6ccccc6)CC5)cc4F)c3s2)n1C`: the half-inhibitory concentration (IC50) (at VEGF receptor KDR; with A549 cells; in the assay on DU145 cells; at c-Met; in assay [1]) was less than 250 nM in each case.

For `COCCNCc1cnc(-c2cc3nccc(Oc4ccc(NC(=S)NC(=O)Cc5ccccc5)cc4F)c3s2)n1C` [drawing 342], the IC50 (on VEGF receptor KDR; with A549 cells; in the assay with DU145 cells; at c-Met; in assay [1]) was less than 250 nM in each case.

As for `COCCNCc1ccc(-c2cc3nccc(Oc4ccc(NC(=O)CC(=O)Nc5ccccc5)cc4F)c3s2)cc1`, the IC50 at VEGF receptor KDR is less than 250 nM; in the assay on A549 cells, 250 to 500 nM; with DU145 cells it was 250 to 500 nM; on c-Met it was 250 to 500 nM; in assay [1], less than 250 nM.

With `COCCNCc1ccc(-c2cc3nccc(Oc4ccc(NC(=O)C5(C(=O)Nc6ccccc6)CC5)cc4F)c3s2)cc1` [drawing 310], the IC50 (at VEGF receptor KDR; in the assay on A549 cells; in the assay with DU145 cells; at c-Met; in assay [1]) was less than 250 nM in each case.

For `COCCNCCc1cccc(-c2cc3nccc(Oc4ccc(NC(=O)C5(C(=O)Nc6ccccc6)CC5)cc4F)c3s2)c1`, the IC50 (on VEGF receptor KDR; with A549 cells; in the assay with DU145 cells; on c-Met; in assay [1]) was less than 250 nM in each case.

For `COCCNCCn1cc(-c2cc3nccc(Oc4ccc(NC(=O)C5(C(=O)Nc6ccc(F)cc6)CC5)cc4F)c3s2)cn1`, the 50% inhibitory concentration (IC50) (on VEGF receptor KDR; in the assay on A549 cells; in the assay with DU145 cells; on c-Met; in assay [1]) was less than 250 nM in each case.

`COCCNCc1cccc(-c2cc3nccc(Oc4ccc(NC(=O)CC(=O)Nc5ccccc5)cc4F)c3s2)c1`: the IC50 on VEGF receptor KDR is less than 250 nM; in the assay on A549 cells, 250 to 500 nM; with DU145 cells it was 250 to 500 nM; on c-Met it was 250 to 500 nM; in assay [1] it was less than 250 nM.

With `COCCNCc1cccc(-c2cc3nccc(Oc4ccc(NC(=O)NC5CC5)cc4F)c3s2)n1`, the IC50 (on VEGF receptor KDR; in assay [1]) was 250 to 500 nM throughout.

With `COCCNCc1cnc(-c2cc3nccc(Oc4ccc(NC(=O)Nc5cc(C)on5)cc4F)c3s2)n1C`, the IC50 on VEGF receptor KDR is less than 250 nM.

`COCCNCc1ccc(-c2cc3nccc(Oc4ccc(NC(=O)C5(C(=O)Nc6ccc(F)cc6)CC5)cc4F)c3s2)nc1` [drawing 354]: the IC50 at VEGF receptor KDR, with A549 cells and in the assay with DU145 cells was less than 250 nM throughout.

On to `COCCN(Cc1cnc(-c2cc3nccc(Oc4ccc(NC(=O)NC5CC5)cc4F)c3s2)n1C)C(=O)OCc1ccccc1`, for which the IC50 in assay [1] is more than 1000 nM.

On to `COCCNCc1cnc(-c2cc3nccc(Oc4ccc(NC(=O)NC5CC5)cc4F)c3s2)n1C`, for which the IC50 on VEGF receptor KDR is less than 250 nM; in assay [1] it was 250 to 500 nM.

Take `COCCNCc1cccc(-c2cc3nccc(Oc4ccc(NC(=O)Nc5cc(C(F)(F)F)ccc5F)cc4F)c3s2)n1`: the IC50 (at VEGF receptor KDR; in assay [1]) was less than 250 nM each time.
